In publication PMC4997316, “A ruthenium polypyridyl intercalator stalls DNA replication forks, radiosensitizes human cancer cells and is enhanced by Chk1 inhibition” (Scientific Reports, 2016):

What was measured:
[1] = tested on: Calf thymus DNA; assay: relative viscosity of DNA on addition of complex; assay type: binding; settings: calf thymus DNA 4.19 × 10^−5 M, r 0-0.3
Experimental: The novel ruthenium(II) polypyridyl complexes [Ru(dppz)2(PIP)]^2+, 1, and [Ru(dppz)2(p-HPIP)]^2+, 2, (dppz = dipyrido[3,2-a:2′,3′-c]phenazine, PIP = (2-(phenyl)imidazo[4,5-f][1,10]phenanthroline) and p-HPIP ((2-(4-hydroxyphenyl)imidazo[4,5-f][1,10]phenanthroline)) were prepared by modification of reported synthetic pathways[17][30][31] and characterised by standard spectroscopic and analytical techniques (Figs S1–7 in the Supplementary Information). Evidence of a reversible binding interaction with DNA is provided by evidence of hypochromicity of the absorption spectra of 1 and 2 with increasing concentrations of DNA (Fig. S8). […] To investigate specific binding mode, relative viscosities of DNA with increasing concentrations of each complex were determined, where an increase in relative viscosity corresponds to the unwinding and lengthening of the DNA strand as a result of intercalation. […]
Calf thymus DNA, CT-DNA, (Sigma) was dissolved in NaCl (25 mm) and Tris (5 mm, pH 7.0) buffer and concentrations of determined spectroscopically (ε = 6600 dm^3 mol^−1cm^−1 at 260 nm). […] An equilibration time of 20 min was allowed before the flow times were recorded by Cannon–Manning semimicro viscometer (size 50) immersed in a thermostat bath (27 °C). Times were recorded in triplicate to within 0.1 second of each other and averaged values obtained.

[2] = octanol/water partition coefficient (Log P)
[3] = tested on: MCF7 breast cancer cells; assay: MTT proliferation assay, MCF7; assay type: cell-based, human; settings: 24 h proliferation assay
Experimental: (§1) (LC3 = Microtubule-associated protein light chain 3) (Fig. 2b, bottom).
(§2) Cells were seeded in 96 well plates at 20,000 cells/well, allowed to proliferate for 24 h before treatment as described in the main text. 0.5 mg ml^−1 MTT (thiazolyl blue tetrazolium bromide) dissolved in serum-free media was added for 60 minutes and the formazan product eluted using acidified isopropanol. The absorbance at 540 nm was quantified by plate reader (reference wavelength 650 nm). The metabolic activity of the cell population was determined as a percentage of a negative (solvent) control.

[4] = tested on: HeLa cells; assay: irradiation and clonogenic survival assay; assay type: cell-based, human; settings: for DEF (dose enhancement factor): LD10 [without complex]/LD10 [with complex]; for Radiosensitivity (AUC): area under the survival curve, DMSO 3.83; for LD10: from regression of survival curves, DMSO 6.7; for radiation enhancement ratio (RER): radiosensitivity [without complex]/radiosensitivity [with complex]
Experimental: Chemotherapeutics are often used in combination with external beam ionising radiation in the treatment of cancers and many drugs that inhibit DNA replication are potent radiosensitizers. To examine the possibility that 1 may function as a radiosensitizer, HeLa cells were pre-treated with 1 for 20 h before irradiation (0–6 Gy ionising irradiation (IR); ^137Cs-γ-rays; dose rate = 0.809 Gy min^−1). After further incubation for 4 h with the complex, the relative impact on cell viability was assessed by clonogenic survival. Complex 2, which achieves its impact on cell proliferation through non-DNA damage-based autophagy, was included in parallel for comparison. […] The formation of γH2AX is an early response to IR-induced DSB generation and may provide an indication of DNA damage levels. […] These findings indicate increased levels of DNA damage at an early time point accompany the enhanced radiation-induced cell killing in HeLa cells radiosensitised by 1.
HeLa cells were pre-treated with DMSO, 1 or 2 for 20 h and irradiated using a ^137Cs γ-irradiator (IBL637, CIS Bio Int.; dose rate = 0.809 Gy min^−1). Solutions were removed 4 h after irradiation; cells detached using Trypsin and re-seeded in 6 well plates at a density of 1000 cells/well (in triplicate). Cells were incubated for 7–10 days after re-seeding to allow colony formation before being fixed with 10% methanol, 10% acetic acid and stained with 0.4% methylene blue. Colonies containing 50 cells or greater were counted using a Gelcount instrument and accompanying software (Oxford Optronix). Plating efficiencies were determined for each treatment condition and normalised to controls to provide the survival fraction. Resultant survival fraction (S.F.) versus radiation dose curves were fitted using a second order polynomial function (R^2 values > 0.99). […]
Table S2. Radiosensitization data for 1 and 2 in HeLa cells.
LD10 (Gy) DEF Radiosensitivity RER
Survival variables LD10 (10 % lethal dose) and radiosensitivity, which is expressed as the area under
the survival curve (AUC), derived from linear regression analyses of survival curves (R 2 values ≥
0.989 for all fits). Dose enhancement factor (DEF) = LD 10 [without complex]/LD10 [with complex].
Radiation enhancement ratio (RER) = radiosensitivity [without complex]/radiosensitivity [with

[5] = tested on: HeLa cervical cancer cells; assay: MTT proliferation assay, HeLa; assay type: cell-based, human; settings: 24 h proliferation assay
Experimental: as §1, §2

[6] = tested on: primary human foreskin fibroblasts (HFF); assay: MTT proliferation assay, HFF; assay type: cell-based; settings: 24 h proliferation assay
Experimental: as §1, §2

SMILES | relative viscosity of DNA [1] | Log P [2] | IC50 [3] | decrease in cell survival versus 6 Gy γ-rays alone ([4]; 40 μM plus 6 Gy) | survival fraction (S.F.) with 6 Gy γ-rays ([4]; 40 μM, 20 h before and 4 h after irradiation, 6 Gy alone 21.1 +/− 2%) | survival fraction (S.F.) in the absence of radiation ([4]; 40 μM, 24 h) | DEF (dose enhancement factor) ([4]; 40 μM) | Radiosensitivity (AUC) ([4]; 40 μM) | LD10 ([4]; 40 μM) | radiation enhancement ratio (RER) ([4]; 40 μM) | IC50 [5] | IC50 [6]
[Ru+2].c1ccc(-c2nc3c4cccnc4c4ncccc4c3[nH]2)cc1.c1ccc2nc3c4cccnc4c4ncccc4c3nc2c1.c1ccc2nc3c4cccnc4c4ncccc4c3nc2c1 [Complex 1, [Ru(dppz)2(PIP)]^2+] | increase relative viscosity of DNA | 0.403 | 28 µM | 6.8 fold | 3.1 +/− 1% | ~ 85% | 1.49 | 2.59 | 4.5 Gy | 1.48 | 38 µM | > 100 µM
Oc1ccc(-c2nc3c4cccnc4c4ncccc4c3[nH]2)cc1.[Ru+2].c1ccc2nc3c4cccnc4c4ncccc4c3nc2c1.c1ccc2nc3c4cccnc4c4ncccc4c3nc2c1 [Complex 2, [Ru(dppz)2(p-HPIP)]^2+] | increase relative viscosity of DNA | 0.076 | 12 µM | – | – | – | 1.14 | 3.39 | 5.9 Gy | 1.13 | 14 µM | > 100 µM
